The target of data set [1] is T1, pig pancreas lipase (Sus scrofa, UniProt P00591).
T1 sequence (P00591 1-450): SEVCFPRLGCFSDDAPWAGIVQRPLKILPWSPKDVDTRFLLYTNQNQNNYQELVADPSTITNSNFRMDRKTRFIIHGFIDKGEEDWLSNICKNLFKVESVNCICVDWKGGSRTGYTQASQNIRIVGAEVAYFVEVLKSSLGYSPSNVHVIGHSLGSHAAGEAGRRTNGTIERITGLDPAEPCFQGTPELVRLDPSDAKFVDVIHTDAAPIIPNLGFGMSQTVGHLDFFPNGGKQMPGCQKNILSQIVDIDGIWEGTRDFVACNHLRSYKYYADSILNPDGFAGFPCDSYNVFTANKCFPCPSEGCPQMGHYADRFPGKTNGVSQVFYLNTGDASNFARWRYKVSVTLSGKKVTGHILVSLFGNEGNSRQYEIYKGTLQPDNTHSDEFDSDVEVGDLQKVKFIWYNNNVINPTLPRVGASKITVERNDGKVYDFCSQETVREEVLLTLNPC
Briefly: inhibition of pancreas lipase (titrimetric, oleic acid liberated from triolein). In kind it is biochemical. The source says:
The IC50 is that concentration at which the lipase reactivity is inhibited to half of the maximum.

The test system of data set [2] is resorption of fats. Description: inhibition of the resorption of fats, double-labelling experiment on mice (3H-triolein and 14C-oleic acid excreted with the feces). In kind it is in vivo. Conditions: 40 mg/kg lipstatin, given as preparation containing about 10% lipstatin, test meal. The method, then:
For this purpose, there is administered to the test animals a test meal, which contains ^3 H-triolein and ^14 C-oleic acid, and a compound of formula I. By measuring the radioactivity there is then determined the amount of ^3 H-triolein and ^14 C-oleic acid (in % of the amount administered) excreted with the feces.
*The experiments were carried out with a preparation which contained abou
10% lipstatin. The dosage specified is the amount of lipstatin

A short description of data set [3]: acute toxicity, single oral administration to mice. Conditions: mouse, in vivo. The procedure: An emulsion which contains 1 mM taurodeoxycholate, 9 mM taurodeoleate, 0.1 mM cholesterol, 1 mM egg lecithin, 15 mg/ml BSA (i.e., bovine serum albumine), 2 mM Tris-HCl, 100 mM sodium chloride, 1 mM calcium chloride and the substrate triolein is treated with the compound of formula I dissolved in ethanol or dimethyl sulphoxide (10% of the emulsion volume) and the reaction is started by the addition of 100 μl (175 U) of pig pancreas lipase. the pH is held at 8 during the reaction by the addition of sodium hydroxide. The IC50 is calculated from the consumption of sodium hydroxide determined during 10 minutes. The IC50 is that concentration at which the lipase reactivity is inhibited to half of the maximum. Table I hereinafter contains IC50 values determined for the compounds of formula I and data concerning the acute toxicity (LD50 after single oral administration to mice).

The structures appear in SMILES notation.

Broadly, the IC50 is the concentration at which inhibition is half-maximal. As a reminder, the LD50 is the dose expected to kill half of the subjects tested. The low end stands for a more toxic substance, the high end for a less toxic substance. As to `CCCCC/C=C\C/C=C\C[C@@H](C[C@@H]1OC(=O)[C@H]1CCCCCC)OC(=O)[C@H](CC(C)C)NC=O` [Lipstatin, (2S,3S,5S,7Z,10Z)-5-[(S)-2-formamido-4-methyl-valeryloxy]-2-hexyl-3-hydroxy-7,10-hexadecadienoic acid lactone], in data set [1], the IC50 was 142 nM. Also, in data set [2] (controls 3.5 ± 0.3), the “Excretion of Triolein in % of the amount administered” value is on record as 56.8 ± 13 % of the amount administered. In data set [2] (controls 10.1 ± 0.6), the “Excretion of Oleic acid in % of the amount administered” value is recorded as 13.8 ± 5.6 % of the amount administered. The LD50 in data set [3] was above 4000 mg/kg.

The record behind these values is patent US4598089A, “Leucine derivatives” (Hoffmann-La Roche Inc., priority 1983, dated 1986).
